“Also recorded” adds a separate entry of the source.
Key:
[1] = system: mitochondrial complex 1; assay: Seahorse OCR inhibition of PPV derivatives, normalized to PPV; format: cell-based; settings: Seahorse; for Inhibitory activity OCR % of PPV: OCR inhibition at 10 μM concentration, normalized to PPV
Method: FIGS. 7A-7D show OCR and cellular toxicity data. […]. Bars represent mean OCR and PDE10 inhibitory activities from at least 5 (OCR) or 3 (PDE) replicates. All experiments were repeated at least twice. […] Values are mean+−SEM.
(§1) Seahorse analysis of the OCR. Oxygen consumption rate (OCR) was measured using Seahorse XF96 Flux Analyzer (Agilent Technologies). The cells were seeded to attach overnight, wells were washed with pre-warmed XF Calibrant (Agilent Technologies) and the replaced with unbuffered Assay Medium (pH 7.4, 5 mM glucose, 1 mM L-glutamine). The plates were incubated at 37° C. in a CO2-free incubator for 2 hours prior to assay. For succinate rescue assay, cells were permeabilized using XF Plasma Membrane Permeabilizer Reagent (XF PMP, Agilent Technologies) according to the manufacturer's instructions. The OCR rate was measured in 1× Mitochondrial Assay Solution (MAS) (70 mM sucrose, 220 mM mannitol, 10 mM KH2PO4, 5 mM MgCl2, 2 mM Hepes, 0.6% (w/v) fatty acid-free BSA and 1 mM EGTA; pH 7.4). After baseline oxygenation was established, 1 μM rotenone or 10 μM PPV was injected at time A, followed by 5 mM succinate at time B. Error bars represent standard deviation. For the washout experiment, EO771 cells were seeded overnight, then treated with 10 μM PPV or 1 μM rotenone 3 hours prior to OCR measurement. Media was replaced 1 and 2 hours before measurement and OCR reported.
Because PPV's effect on mitochondrial function is independent of cAMP levels it was reasoned that there are two activities in PPV, one inhibiting complex 1 and one inhibiting PDE10A that may reside in different parts of the molecule. The structure activity relationship of PPV relative to two assays was assessed: inhibition of cellular OCR by Seahorse, and inhibition of PDE10A by purified enzyme activity in multiwell plate (PDE10A activity assay kit, BPS Bioscience). Because PPV can compete with rotenone as complex 1 inhibitors, it was reasoned that they may be binding the same site and therefore the structures would be similar relative to the mitochondrial binding target. […] Because the top was a planar structure similar to that of rotenone, and they compete with each other for the same binding pocket on complex 1 (FIG. 10) the lower portion of the molecule and how it may resemble rotenone were investigated in more detail. It was established that flexible linkage was preferred for mitochondrial activity and bulky adducts to the lower benzene ring may block it (FIG. 7C). […] These lead compounds were synthesized from commercial precursors and purified on silica gel column. Structures were confirmed by ^1H NMR and found to be >95% pure by HPLC.

[2] = target: T1, PDE10A (Homo sapiens, UniProt Q9Y233); assay: PDE10A enzymatic assay (PDE10A activity assay kit, BPS Bioscience); format: biochemical; settings: for Inhibitory activity PDE10A % of PPV: PDE10A inhibition at 1 μM, normalized to PPV
T1 construct: purchased BPS Bioscience
T1 sequence (Q9Y233 267-1055): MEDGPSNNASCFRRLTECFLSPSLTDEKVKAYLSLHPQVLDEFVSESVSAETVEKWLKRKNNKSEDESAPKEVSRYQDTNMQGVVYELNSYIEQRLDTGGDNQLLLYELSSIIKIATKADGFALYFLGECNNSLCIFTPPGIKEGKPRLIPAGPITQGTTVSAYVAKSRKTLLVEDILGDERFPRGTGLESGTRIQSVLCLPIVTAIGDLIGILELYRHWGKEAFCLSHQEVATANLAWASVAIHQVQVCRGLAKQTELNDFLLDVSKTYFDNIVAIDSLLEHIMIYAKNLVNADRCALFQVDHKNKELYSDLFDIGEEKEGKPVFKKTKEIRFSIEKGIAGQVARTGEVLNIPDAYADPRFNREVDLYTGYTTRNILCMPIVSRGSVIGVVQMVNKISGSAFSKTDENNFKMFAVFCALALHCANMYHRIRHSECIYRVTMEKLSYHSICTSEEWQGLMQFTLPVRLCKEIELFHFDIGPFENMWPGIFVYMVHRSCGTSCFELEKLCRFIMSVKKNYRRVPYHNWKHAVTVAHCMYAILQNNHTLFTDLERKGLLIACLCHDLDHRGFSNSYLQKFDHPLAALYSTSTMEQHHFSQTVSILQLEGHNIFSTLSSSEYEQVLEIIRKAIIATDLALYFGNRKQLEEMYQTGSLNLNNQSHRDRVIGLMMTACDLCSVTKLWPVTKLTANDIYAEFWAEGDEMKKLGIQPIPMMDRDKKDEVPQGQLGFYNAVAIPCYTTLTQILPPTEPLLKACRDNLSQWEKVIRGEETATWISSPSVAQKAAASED
Method: FIGS. 7A-7D show OCR and cellular toxicity data. […] Bars represent mean OCR and PDE10 inhibitory activities from at least 5 (OCR) or 3 (PDE) replicates. All experiments were repeated at least twice. […] Values are mean+−SEM. […]
The structure activity relationship of PPV relative to two assays was assessed: inhibition of cellular OCR by Seahorse, and inhibition of PDE10A by purified enzyme activity in multiwell plate (PDE10A activity assay kit, BPS Bioscience). […] These lead compounds were synthesized from commercial precursors and purified on silica gel column.

[3] = system: oxygen consumption (mitochondrial function); assay: Seahorse XF analysis of oxygen consumption in vitro, cell line not stated; format: cell-based
Method: as §1

[4] = system: A549 NDUFV1 KO NDI1 cells; format: cell-based, Human; settings: 10 μM papaverine or 1 μM rotenone
[5] = system: A549 cells; assay: Seahorse OCR in A549 cells (dose response, IC50, washout); format: cell-based, Human; settings: 1 μM rotenone, media replaced

Inhibitory activity PDE10A % of PPV [2]	Structure (SMILES)	Inhibitory activity OCR % of PPV [1]	other results
70.84 % of PPV	COc1cc2ccnc(C(O)c3ccc4ccccc4c3)c2cc1OC (centres unmarked)	29.26 % of PPV	
74.38 % of PPV	C=C(C)COc1c(C)cc(C(=O)c2nccc3cc(OC)c(OC)cc23)cc1C	15.51 % of PPV	
12.77 % of PPV	COc1cc2c(cc1OC)C(Cc1ccc3c(c1)OCO3)=NCC2	5.55 % of PPV	
35.44 % of PPV	COc1ccc(C(O)c2nccc3cc(OC)c(OC)cc23)cc1 (centres unmarked)	70.45 % of PPV	
65.88 % of PPV	COc1ccc(C(=O)c2nccc3cc(OC)c(OC)cc23)cc1	29.55 % of PPV	
73.33 % of PPV	C=C(C)COc1c(C)cc(C(O)c2nccc3cc(OC)c(OC)cc23)cc1C (centres unmarked)	84.42 % of PPV	
69.54 % of PPV	COc1cc2ccnc(Cc3ccc4c(c3)OCO4)c2cc1OC	11.11 % of PPV	
72.86 % of PPV	COc1cc2ccnc(C(O)c3cc(OC)c(OC)c(OC)c3)c2cc1OC (centres unmarked)	34.09 % of PPV	
0 % of PPV	COc1cc2ccnc(C(=O)c3ccc4ccccc4c3)c2cc1OC	4.34 % of PPV	
23.60 % of PPV	COc1cc2ccnc(C(O)c3ccccc3)c2cc1OC (centres unmarked)	12.07 % of PPV	
37.27 % of PPV	COc1cc2c(cc1OC)C(Cc1cc(C)c(OC)c(C)c1)=NCC2	14.81 % of PPV	
26.28 % of PPV	COc1cc2ccnc(C(=O)c3ccccc3)c2cc1OC	0 % of PPV	
37.37 % of PPV	COc1cc2ccnc(Cc3cc(OC)c(OC)c(OC)c3)c2cc1OC	34.09 % of PPV	
40.00 % of PPV	COc1cc2c(cc1OC)C(Cc1cc(C)cc(C)c1)=NCC2	30.09 % of PPV	
30.52 % of PPV	COc1cc2ccnc(C(=O)c3cc(C)cc(C)c3)c2cc1OC	9.26 % of PPV	
64.65 % of PPV	COc1cc2ccnc(Cc3cc(C)c(OC)c(C)c3)c2cc1OC	91.18 % of PPV	
20.16 % of PPV	COc1ccc(CCc2nccc3cc(OC)c(OC)cc23)cc1OC	5.94 % of PPV	
	[H]/N=C(/N)N/C(=N/[H])NCCc1ccccc1 [phenformin]		inhibition of oxygen consumption / mitochondrial function in vitro [3]: effective at inhibiting oxygen consumption
50.92 % of PPV	COc1cc2ccnc(C(=O)c3cc(C)c(OC)c(C)c3)c2cc1OC	0 % of PPV	
100 % of PPV	COc1cc2ccnc(Cc3ccc4ccccc4c3)c2cc1OC	35.99 % of PPV	
24.24 % of PPV	COc1cc2ccnc(C(O)c3cccc4ccccc34)c2cc1OC (centres unmarked)	18 % of PPV	
63.39 % of PPV	COc1cc2ccnc(C(=O)c3cc(OC)c(OC)c(OC)c3)c2cc1OC	13.63 % of PPV	

Inhibitory activity PDE10A % of PPV [2]	Structure (SMILES)	Inhibitory activity OCR % of PPV [1]	other results
	COc1cc2ccnc(Cc3ccc(C)c(C)c3)c2cc1OC	17.43 % of PPV	
29.13 % of PPV	COc1cc2ccnc(Cc3cc(C)c(OCC(C)C)c(C)c3)c2cc1OC	72.88 % of PPV	
51.12 % of PPV	COc1cc2ccnc(C(=O)c3ccc4c(c3)OCO4)c2cc1OC	5.55 % of PPV	
0 % of PPV	COc1cc2ccnc(C(=O)c3cccc4ccccc34)c2cc1OC	31.91 % of PPV	
67.90 % of PPV	COc1cc2ccnc(C(O)c3ccc4c(c3)OCO4)c2cc1OC (centres unmarked)	12.96 % of PPV	
0 % of PPV	COc1cc2ccnc(C(O)c3cc(C)cc(C)c3)c2cc1OC (centres unmarked)	23.40 % of PPV	
29.18 % of PPV	COc1cc2ccnc(C(O)c3cc(C)c(OC)c(C)c3)c2cc1OC (centres unmarked)	10.35 % of PPV	
16.58 % of PPV	COc1cc2ccnc(C(O)c3cc(C(F)(F)F)cc(C(F)(F)F)c3)c2cc1OC (centres unmarked)	48.27 % of PPV	
85.02 % of PPV	COc1cc2ccnc(Cc3cc(C)c(O)c(C)c3)c2cc1OC	5.86 % of PPV	
10.28 % of PPV	COc1cc2ccnc(Cc3cc(C(F)(F)F)cc(C(F)(F)F)c3)c2cc1OC	33.4 % of PPV	
17.18 % of PPV	COc1ccc(OCc2nccc3cc(OC)c(OC)cc23)cc1OC	72.05 % of PPV	
17.69 % of PPV	COc1cc2ccnc(C(=O)c3cc(C(F)(F)F)cc(C(F)(F)F)c3)c2cc1OC	0 % of PPV	
	Cc1cccc(CN2CCN(C(c3ccccc3)c3ccc(Cl)cc3)CC2)c1 (centres unmarked) [meclizine]		inhibition of oxygen consumption / mitochondrial function in vitro [3]: effective at inhibiting oxygen consumption
	CN(C)C(=N)N=C(N)N [Metformin]		inhibition of oxygen consumption / mitochondrial function in vitro [3]: effective at inhibiting oxygen consumption
0 % of PPV	COc1cc2ccncc2cc1OC [DMIQ, reference compound]	0 % of PPV	activity in cellular OCR assay [1]: inactive; activity in PDE10A assay ([2]; purified enzyme): inactive
	COc1ccccc1OCC(O)CN1CCN(CC(=O)Nc2c(C)cccc2C)CC1 (centres unmarked) [ranolazine]		inhibition of oxygen consumption / mitochondrial function in vitro [3]: effective at inhibiting oxygen consumption
69.55 % of PPV	COc1ccc(-c2nccc3cc(OC)c(OC)cc23)cc1OC	3.64 % of PPV	
	COc1cc2ccnc(C(O)c3ccc(C)c(C)c3)c2cc1OC (centres unmarked)	22.69 % of PPV	
79.93 % of PPV	COc1ccc(Cc2nccc3cc(OC)c(OC)cc23)cc1	36.36 % of PPV	
	COc1cc2ccnc(C(=O)c3ccc(C)c(C)c3)c2cc1OC	9.64 % of PPV	
	COc1cc2ccnc(COc3cccc4ccccc34)c2cc1OC	14.19 % of PPV	
59.69 % of PPV	C=C(C)COc1c(C)cc(Cc2nccc3cc(OC)c(OC)cc23)cc1C	74.81 % of PPV	

Structure (SMILES)	Inhibitory activity PDE10A % of PPV [2]	Inhibitory activity OCR % of PPV [1]	other results
C=C(C)[C@H]1Cc2c(ccc3c2O[C@@H]2COc4cc(OC)c(OC)cc4[C@@H]2C3=O)O1 [rotenone]	0 % of PPV	193 % of PPV	response of mitochondria (OCR) to drug [4]: resistant; reversibility of OCR inhibition in washout [5]: no restoration in 3 hours; also recorded: irreversible inhibitor
